molecular target: T1, hTSHR (Homo sapiens, UniProt P16473); experiment: hTSHR TR-FRET cAMP Assay (inhibition of M22-stimulated cAMP production); type: cell-based; details: Expi293F Inducible cells stably expressing hTSHR; cAMP HTRF; stimulated with EC80 of anti-TSHR antibody M22; 15 min compound preincubation, 30 min at 37° C.; read-out: Activity (IC50 bins)
T1 construct: expressed in transfected cells
Procedure, shortened: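 Readout was a cAMP HTRF ratio of 655/620 nm after lysis, scaled between the EC80 M22 signal (0% inhibition) and no-agonist vehicle (100%). Frozen induced Expi293F-hTSHR cells saw test compounds (0.5% DMSO) for 15 min at 37 °C before 30 min of M22 stimulation at EC80.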

T1 sequence (P16473 21-764): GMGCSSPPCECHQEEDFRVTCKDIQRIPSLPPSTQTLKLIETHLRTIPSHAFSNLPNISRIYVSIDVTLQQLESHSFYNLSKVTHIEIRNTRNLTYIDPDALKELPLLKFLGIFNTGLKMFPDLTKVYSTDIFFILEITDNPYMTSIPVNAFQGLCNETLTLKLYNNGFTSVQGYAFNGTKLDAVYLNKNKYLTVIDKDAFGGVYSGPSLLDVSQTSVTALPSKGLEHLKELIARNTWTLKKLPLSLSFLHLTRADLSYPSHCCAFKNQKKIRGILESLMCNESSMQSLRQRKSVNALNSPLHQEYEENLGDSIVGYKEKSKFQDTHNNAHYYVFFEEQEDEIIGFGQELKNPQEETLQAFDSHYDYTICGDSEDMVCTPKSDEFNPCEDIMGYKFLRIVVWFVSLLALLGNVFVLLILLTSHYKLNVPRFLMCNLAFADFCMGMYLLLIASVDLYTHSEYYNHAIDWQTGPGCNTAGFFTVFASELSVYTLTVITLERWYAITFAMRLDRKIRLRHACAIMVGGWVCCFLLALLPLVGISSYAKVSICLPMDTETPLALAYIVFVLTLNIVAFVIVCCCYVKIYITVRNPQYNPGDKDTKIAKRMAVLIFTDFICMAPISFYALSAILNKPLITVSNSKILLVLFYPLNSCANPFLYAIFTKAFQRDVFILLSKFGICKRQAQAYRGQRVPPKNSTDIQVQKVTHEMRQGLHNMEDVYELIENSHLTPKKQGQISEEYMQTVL

C[C@@H](c1cc(OC(F)(F)F)ccc1F)n1c(=O)cnc2cc(NC(=O)NC(C)(C)C)ccc21 [Example 104, (S)-1-(tert-butyl)-3-(1-(1-(2-fluoro-5-(trifluoromethoxy)phe-nyl)ethyl)-2-oxo-1,2-dihydroquinoxalin-6-yl)urea] and CC(c1cccc(OC(F)(F)F)c1F)n1c(=O)cnc2cc(NC(=O)NC(C)(C)C)ccc21 (stereo not shown) [Example 312, 1-(tert-butyl)-3-(1-(1-(2-fluoro-3-(trifluoromethoxy)phenyl)ethyl)-2-oxo-1,2-dihydroquinoxalin-6-yl)urea] fall in the same range of IC50: 100 to 1000 nM for the first, 100 to 1000 nM for the second.

First: CC(C)CCc1cccc([C@H](C)n2c(=O)cnc3cc(NC(=O)NC(C)(C)C)ccc32)c1 [Example 107, (S)-1-(tert-butyl)-3-(1-(1-(3-isopentylphenyl)ethyl)-2-oxo-1,2-dihydroquinoxalin-6-yl)urea]
Second: C[C@@H](c1cccc(OC(F)(F)F)c1)n1c(=O)cnc2cc(NC(=O)NC3(C)COC3)ccc21 [Example 212]
The IC50 of the first is lower: 100 to 1000 nM for the first, greater than 1000 nM for the second.

First: CC1(C)CN(C(=O)Nc2ccc3c(c2)ncc(=O)n3Cc2ccccc2)C1 [Example 192, N-(1-benzyl-2-oxo-1,2-dihydroquinoxalin-6-yl)-3,3-dimethylazetidine-1-carboxamide]
Second: COCC1(NC(=O)Nc2ccc3c(c2)ncc(=O)n3[C@@H](C)c2cccc(OC(F)(F)F)c2)CCC1 [Example 215, (S)-1-(1-(methoxymethyl)cyclobutyl)-3-(2-oxo-1-(1-(3-(tri-fluoromethoxy)phenyl)ethyl)-1,2-dihydroquinoxalin-6-yl)urea]
The IC50 of the first is higher: greater than 1000 nM for the first, 100 to 1000 nM for the second.

First: C[C@@H](c1cccc(OC(F)(F)F)c1)n1c(=O)cnc2cc(NC(=O)NC34CCC(CC3)C4)ccc21 [Example 211, (S)-1-(bicyclo[2.2.1]heptan-1-yl)-3-(2-oxo-1-(1-(3-(trifluoromethoxy)phenyl)ethyl)-1,2-di-hydroquinoxalin-6-yl)urea]
Second: C[C@@H](c1cccc(OC(F)(F)F)c1)n1c(=O)cnc2cc(NC(=O)N[C@H]3C[C@H](C(F)(F)F)C3)ccc21 [Example 223, 1-(2-oxo-1-((S)-1-(3-(trifluoromethoxy)phenyl)ethyl)-1,2-dihydroquinoxalin-6-yl)-3-((1r,3R)-3-(trifluoromethyl)cyclobutyl)urea]
The IC50 of the first is lower: less than 100 nM for the first, 100 to 1000 nM for the second. The first is the more potent here.

CC(C)(C)NC(=O)Nc1ccc2c(c1)CCC(=O)N2Cc1cccc(C#N)c1 [Example 18, 1-(tert-butyl)-3-(1-(3-cyanobenzyl)-2-oxo-1,2,3,4-tetrahydroquinolin-6-yl)urea] and CC(C)(C)NC(=O)Nc1ccc2c(c1)OCC(=O)N2Cc1cccc(CO)c1 [Example 72, 1-(tert-butyl)-3-(4-(3-(hydroxy-methyl)ben-zyl)-3-oxo-3,4-dihydro-2H-benzo[b][1,4]oxa-zin-7-yl)urea] cannot be ordered by IC50: greater than 1000 nM for the first, greater than 1000 nM for the second.

Reference: patent publication US20260365628A1, “SUBSTITUTED 3,4-DIHYDROQUINOLINONE INHIBITORS OF TSHR” (Septerna, Inc., priority 2022, published 2026)
